# Data published in patent US20080089859A1, “ADMINISTRATION OF SLEEP RESTORATIVE AGENTS” (priority 2001, published 2008).
# Marks after values point to notes of the source that are not given here.
# How the values were obtained:
# [1] = tested on: rheumatoid arthritis (Ra) and Psoriatic arthritis (PsA) patients; assay: Study of Example 1 continued to 18 months (Example 2); assay type: in vivo, human
# Text: The study of Example 1 was continued to 18 months. […] Fibromyalgia was a surrogate for a lack of deep (e.g., stage IV) restorative sleep.
# JC refers to the number of swollen tender joints.
# [2] = tested on: patient with chronic gout; assay: Treatment of a patient with chronic gout and severe synovitis; assay type: in vivo, human; conditions: one patient; colchicine, hydroxychloroquine and Etanercept added together, before sleep agents
# Method: Adding colchicine, hydroxychloroquine and Etanercept only allowed them to decrease prednisone to 15 mg qd.
# [3] = tested on: patients with rheumatoid arthritis; conditions: cited from earlier work
# [4] = tested on: patients with Ankylosing Spondylitis; assay: Treatment of patients with Ankylosing Spondylitis; assay type: in vivo, human; conditions: six patients after lorazepam or pramipexole, off Methotrexate and steroids
# Method: Six patients with Ankylosing Spondylitis were treated according to the present invention. […] The patients were administered lorazepam 1-2 mg qhs or pramipexole 0.5-3.0 mg qhs.
# [5] = tested on: rheumatoid arthritis (Ra) and Psoriatic arthritis (PsA) patients; assay: Open-label retrospective chart analysis of patients starting Etanercept, with sleep/fibromyalgia treatment (Example 1); assay type: in vivo, human
# Text: The effect of sleep disturbance and/or overt fibromyalgia (FM) on Etanercept (ENBREL®, Immunex) efficacy was monitored in an open-label, retrospective chart analysis of rheumatoid arthritis (Ra) and Psoriatic arthritis (PsA) patients starting Etanercept due to inadequate response to prior disease-modifying and steroid treatment. Sixty six (66) consecutive patients (19 males, 47 Females; 39 positive for rheumatoid factor for rheumatoid arthritis, 13 negative for rheumatoid factor for rheumatoid arthritis, 14 having PsA) were treated at a suburban, referral-based rheumatology clinic. The patients were monitored for swollen/tender joints (joint count, JC), fibromyalgia tender point score, restorative sleep quality, and concomitant medication use, before and after adding Etanercept treatment. Concomitant medication use included prednisone, methotrexate, non-steroidal anti-inflammatory drugs (NSAIDS), azothioprine, sulfasalazine, and hydroxychloroquine.
# All patients with overt FM and non-restorative sleep were treated with options for fibromyalgia (FM), including Trazodone, Lorazepam, Clonazepam, Carisoprodol, and/or Pramipexole as needed to decrease FM pain and sleep disturbance as previously reported. (Arthritis & Rheumatology 43:9 A1599 (2000); Arthritis & Rheumatology 42:9 A385 (1999); Arthritis & Rheumatology 41:9 A1359 (1998).)
# The patient criteria were as follows: The mean arthritis duration was 9.2±1.3 years. Etanercept use was 14±1.5 months. The average age of the patients was 50.5±4.3 years. Their average initial erythrocyte sedimentation rate (ESR) was 22.0±8.0. Previous DMARDs 2.4±0.3. Their initial Joint Count was as follows: PsA 8.3, Ra-8.1, and Ra+13.2 The disease groups were combined: 20 patients had active FM (aFM). 29 never had FM (no FR).
substance,measurement,setting,value
Etanercept,MTX abs (absolute change of methotrexate use),"[1]; 18 months, Active FM (N 6)",(6) +0.8 mg
same,Pred abs (absolute change of steroid use),"[1]; 18 months, Active FM (N 9)",(9) −7.15 mg
same,Joint count abs (absolute change),"[1]; 18 months, Active FM (N 10)",(10) −10.95
same,MTX abs (absolute change of methotrexate use),"[1]; 18 months, Inactive FM (N 9)",(9) −20.1 mg
same,Pred abs (absolute change of steroid use),"[1]; 18 months, Inactive FM (N 13)",(13) −7.92 mg
same,Joint count abs (absolute change),"[1]; 18 months, Inactive FM (N 23)",(23) −8.98
same,MTX abs (absolute change of methotrexate use),"[1]; 18 months, No FM (N 16), p 0.0002 across groups",(16) −17.5 mg
same,Pred abs (absolute change of steroid use),"[1]; 18 months, No FM (N 19), p 0.8649 across groups",(19) −7.32 mg
same,Joint count abs (absolute change),"[1]; 18 months, No FM (N 28), p 0.5685 across groups",(28) −11.54
same,"JC2, number of swollen tender joints, mean","[1]; patients converted from active FM to inactive FM, 12 months, study entry 9.1",4.6 # tender joints
same,"Pred2, Pred used, mean","[1]; patients converted from active FM to inactive FM, 12 months, study entry 10.5",5.5 mg
same,"MTX2, methotrexate used, mean","[1]; patients converted from active FM to inactive FM, 12 months, study entry 17.5",0 mg
same,"JC3, number of swollen tender joints, mean","[1]; patients converted from active FM to inactive FM, 18 months, study entry 9.1",0 # tender joints
same,"Pred3, Pred used, mean","[1]; patients converted from active FM to inactive FM, 18 months, study entry 10.5",1.8 mg
same,"MTX3, methotrexate used, mean","[1]; patients converted from active FM to inactive FM, 18 months, study entry 17.5",0 mg
same,Prednisone dose reached,[2],15 mg qd
same,Patients who may not respond,[3],15-20%
same,Disease activity under continued Etanercept,[4],without evidence of active disease
same,% Change Joint Count,[5]; No FM patients,−93.9 ± 1.9%
same,% Change Methotrexate Dose,[5]; No FM patients,−89.5 ± 8.4%
same,% Change Prednisone Dose,[5]; No FM patients,−96.3 ± 4.0%
same,"Δ Pred., prednisone dose after adding Etanercept","[5]; No FM patients (29), before 8.0",8.0 → 0.3 mg/d
same,"Δ MTX, methotrexate dose after adding Etanercept","[5]; No FM patients (29), before 19.1",19.1 → 2.0 mg/wk
same,"Δ Joint Count, value after adding Etanercept","[5]; No FM patients (29), before Etanercept 11.6",11.6 → 0.7
same,Medication Discontinued: Azathioprine/Sulfasalazine/Hydroxychloroquine (patients),"[5]; No FM patients, p 0.019 across groups",10/11
same,Medication Discontinued: NSAIDs (patients),"[5]; No FM patients, p 0.045 across groups",6/7
same,"Δ Joint Count, value after adding Etanercept","[5]; aFM (active fibromyalgia) patients (20), before Etanercept 11.5, M-W P 0.066",11.5 → 5.9 *
same,Medication Discontinued: Azathioprine/Sulfasalazine/Hydroxychloroquine (patients),[5]; aFM patients,4/8
same,Medication Discontinued: NSAIDs (patients),[5]; aFM patients,1/13
same,"Δ Pred., prednisone dose after adding Etanercept","[5]; aFM patients (20), before 10.3, M-W P 0.1",10.3 → 5.9 # mg/d
same,"Δ MTX, methotrexate dose after adding Etanercept","[5]; aFM patients (20), before 15.0, M-W P 0.002",15.0 → 13.3 ** mg/wk
same,% Change Joint Count,"[5]; aFM patients, M-W P 0.001",−47.8 ± 14.%
same,% Change Prednisone Dose,"[5]; aFM patients, M-W P 0.001",−48.5 ± 15.%
same,% Change Methotrexate Dose,"[5]; aFM patients, M-W P < 0.001",−11.3 ± 4.5%
same,"Δ Joint Count, value after adding Etanercept","[5]; iFM (inactive fibromyalgia) patients (17), before Etanercept 10.1",10.1 → 0.5
same,% Change Joint Count,[5]; iFM patients,−95.0 ± 1.9%
same,% Change Methotrexate Dose,[5]; iFM patients,−100. ± 0.0%
same,% Change Prednisone Dose,[5]; iFM patients,−94.5 ± 3.6%
same,Medication Discontinued: Azathioprine/Sulfasalazine/Hydroxychloroquine (patients),[5]; iFM patients,9/9
same,Medication Discontinued: NSAIDs (patients),[5]; iFM patients,4/7
same,"Δ Pred., prednisone dose after adding Etanercept","[5]; iFM patients (17), before 7.3",7.3 → 0.4 mg/d
same,"Δ MTX, methotrexate dose after adding Etanercept","[5]; iFM patients (17), before 19.7",19.7 → 0.0 mg/wk
